# According to patent US6387947B1, “Antimicrobial cosmetic compositions” (E-L Management Corp., priority 1997, dated 2002):
# Legend:
# Staphylococcus = experiment: microbial challenge of nonionic oil-in-water emulsion, pool 3; format: cell-based; conditions: for concentration of microbes: 0.375% in emulsion
# Procedure: The formulation is divided into five portions, each one getting an inoculation at day 0, and a reinoculation after three weeks, of one of the following microbial cultures: (1)Enterics; (2) Pseudomonas; (3)Staphylococcus; (4)Yeast; and (5)Mold. The concentration of microbes in each individual formulation is calculated on the day of the inoculation, and then again calculated on day 2, and at the end of one, two, three (pre-reinoculation) and four weeks, at a variety of pH values. These are also compared with formulations containing 2-furan carboxylic acid and an identical series of microbes, and an acid pH control emulsion without a furan carboxylic acid added. All numbers, other than those listed as “<10”, are log base 10; thus, for example, “6.6” is equivalent to the presence of […] bacteria. Entries of <10 indicate less than 10 colony forming units, the lowest level of detection.
# [1] = test system: PLA2 enzyme obtained from snake venom; conditions: assay concentrations 0.01, 0.1 and 1 mg/ml
# Procedure: The enzyme reaction is accomplished in a cuvette containing […] of phosphate buffered saline. Fluorometric substrate NBD-C6-HPC is solubilized 1 mM in EtOH, and is diluted in the reaction mixture to yield a 10 μM final concentration. The assay is initiated with the addition of 0.001 units per μl of PLA2 enzyme obtained from snake venom. Enzyme activity is monitored either with or without the presence of potential inhibitors. […] Prior to enzyme addition, samples are measured fluorometrically at excitation 470 and emission 570 to determine background level of fluorescensce. Following enzyme addition, samples are monitored every 15 minutes over a 60 minute period.
# Yeast [2] = experiment: microbial challenge of nonionic oil-in-water emulsion, pool 4; format: cell-based; conditions: 0.375% in emulsion
# Enterics [3] = experiment: microbial challenge of nonionic oil-in-water emulsion, pool 1; format: cell-based; conditions: 0.375% in emulsion
# Pseudomonas [4] = experiment: microbial challenge of nonionic oil-in-water emulsion, pool 2; format: cell-based; conditions: 0.375% in emulsion
# [5] = antiirritant effect against Balsam of Peru on ventral forearms of volunteers; format: in vivo, human; conditions: 0.1% in hydroalcohol 1:1, applied twenty minutes before Balsam of Peru; Minolta Chromameter; seven volunteers
# Procedure: Seven volunteers with a history of skin sensitivity to Balsam of Peru are chosen for the study.
# The test compounds are applied to the ventral forearms of panelists. The material is allowed to absorb for twenty minutes and then Balsam of Peru, an irritant is applied on the test sites. Skin irritation is measured in terms of increase in skin redness. The degree of redness is measured with a Minolta Chromameter and compared with the controls, the positive control being skin treated with Balsam of Peru alone, and the negative control being a skin site treated with 10% cola solution(a known antiirritant), and challenged like the test products.
# Pseudomonas [6] = experiment: microbial challenge of nonionic oil-in-water emulsion, pool 2; format: cell-based
# Procedure: (§1) A nonionic oil-in-water emulsion is prepared containing 0.473% 3-furan carboxylic acid. The formulation is divided into five portions, each one getting an inoculation at day 0, and a reinoculation after three weeks, of one of the following microbial cultures: (1)Enterics; (2) Pseudomonas; (3)Staphylococcus; (4)Yeast; and (5)Mold. The concentration of microbes in each individual formulation is calculated on the day of the inoculation, and then again calculated on day 2, and at the end of one, two, three (pre-reinoculation) and four weeks, at a variety of pH values. These are also compared with formulations containing 2-furan carboxylic acid and an identical series of microbes, and an acid pH control emulsion without a furan carboxylic acid added. All numbers, other than those listed as “<10”, are log base 10; thus, for example, “6.6” is equivalent to the presence of […] bacteria. Entries of <10 indicate less than 10 colony forming units, the lowest level of detection.
# Mold = experiment: microbial challenge of nonionic oil-in-water emulsion, pool 5; format: cell-based; conditions: for concentration of microbes: 0.375% in emulsion
# Procedure: as §1
# mycobacteria = conditions: U.S. Pat. No. 5,387,605; cited from earlier work
# Yeast [7] = experiment: microbial challenge of nonionic oil-in-water emulsion, pool 4; format: cell-based; conditions: for concentration of microbes: 0.375% in emulsion
# Procedure: as §1
# Enterics [8] = experiment: microbial challenge of nonionic oil-in-water emulsion, pool 1; format: cell-based
# Procedure: as §1
# [9] = test system: lymphocyte adhesion to endothelial cells; experiment: inhibition of lymphocyte adhesion to endothelial cells; format: cell-based, human
# Procedure: Endothelial cells are grown to confluence and washed thoroughly with basal media prior to the experiment to remove all fetal calf serum. The test compounds are then added to the endothelial culture well and incubated for 2 hours. IL-1β is added to stimulated expression of adhesion molecules on the endothelial cells before lymphocytes are added. Lymphocytes are isolated from blood collected from adult human subjects and added to the endothelial culture wells. PHA is added to stimulate adhesion molecule expression in the lymphocytes and the cultures incubated overnight. After a brief washing procedure, cells are incubated with Rose Bengal, and the number of adherent cells assessed by measuring the absorbance at 570 nm.
smiles,measurement,setting,value
O=C(O)c1ccco1 [2-furan carboxylic acid],"antimicrobial activity against Staphylococcus, in words",Staphylococcus,does exhibit inhibition
same,concentration of microbes,"Staphylococcus; pH 3.0, Day 0",6.3 log base 10
same,concentration of microbes,"Staphylococcus; pH 3.0, Day 2",<10 colony forming units
same,concentration of microbes,"Staphylococcus; pH 3.0, Week 1",<10 colony forming units
same,concentration of microbes,"Staphylococcus; pH 3.0, Week 2",<10 colony forming units
same,concentration of microbes,"Staphylococcus; pH 3.0, Week 3",<10 colony forming units
same,concentration of microbes,"Staphylococcus; pH 3.0, Week 4",<10 colony forming units
same,concentration of microbes,"Staphylococcus; pH 4.0, Day 0",6.3 log base 10
same,concentration of microbes,"Staphylococcus; pH 4.0, Day 2",<10 colony forming units
same,concentration of microbes,"Staphylococcus; pH 4.0, Week 1",<10 colony forming units
same,concentration of microbes,"Staphylococcus; pH 4.0, Week 2",<10 colony forming units
same,concentration of microbes,"Staphylococcus; pH 4.0, Week 3",<10 colony forming units
same,concentration of microbes,"Staphylococcus; pH 4.0, Week 4",<10 colony forming units
same,concentration of microbes,"Staphylococcus; pH 5.0, Day 0",6.3 log base 10
same,concentration of microbes,"Staphylococcus; pH 5.0, Day 2",2.9 log base 10
same,concentration of microbes,"Staphylococcus; pH 5.0, Week 1",<10 colony forming units
same,concentration of microbes,"Staphylococcus; pH 5.0, Week 2",<10 colony forming units
same,concentration of microbes,"Staphylococcus; pH 5.0, Week 3",<10 colony forming units
same,concentration of microbes,"Staphylococcus; pH 5.0, Week 4",<10 colony forming units
same,"PLA2 inhibition, in words",[1],capable of inhibiting the activity
same,EC-50 of PLA2 inhibition,[1]; calculated from linear fit,0.5 mg/mL
same,concentration of microbes,"Yeast [2]; pH 3.0, Week 2",<10 colony forming units
same,concentration of microbes,"Yeast [2]; pH 4.0, Week 1",3.7 log base 10
same,concentration of microbes,"Yeast [2]; pH 5.0, Week 2",>5.7 log base 10
same,concentration of microbes,"Yeast [2]; pH 5.0, Week 3",>5.7 log base 10
same,concentration of microbes,"Enterics [3]; pH 3.0, Day 0",6.6 log base 10
same,concentration of microbes,"Enterics [3]; pH 3.0, Week 1",<10 colony forming units
same,concentration of microbes,"Enterics [3]; pH 3.0, Week 2",<10 colony forming units
same,concentration of microbes,"Enterics [3]; pH 3.0, Week 3",<10 colony forming units
same,concentration of microbes,"Enterics [3]; pH 3.0, Week 4",<10 colony forming units
same,concentration of microbes,"Enterics [3]; pH 4.0, Day 0",6.6 log base 10
same,concentration of microbes,"Enterics [3]; pH 4.0, Week 1",<10 colony forming units
same,concentration of microbes,"Enterics [3]; pH 4.0, Week 4",<10 colony forming units
same,concentration of microbes,"Enterics [3]; pH 5.0, Day 0",6.6 log base 10
same,concentration of microbes,"Enterics [3]; pH 5.0, Day 2",>6 log base 10
same,concentration of microbes,"Enterics [3]; pH 5.0, Week 1",>6 log base 10
same,concentration of microbes,"Enterics [3]; pH 5.0, Week 3",<10 colony forming units
same,concentration of microbes,"Enterics [3]; pH 5.0, Week 4",<10 colony forming units
same,concentration of microbes,"Pseudomonas [4]; pH 3.0, Week 1",<10 colony forming units
same,concentration of microbes,"Pseudomonas [4]; pH 3.0, Week 3",<10 colony forming units
same,concentration of microbes,"Pseudomonas [4]; pH 3.0, Week 4",<10 colony forming units
same,concentration of microbes,"Pseudomonas [4]; pH 4.0, Day 2",<10 colony forming units
same,concentration of microbes,"Pseudomonas [4]; pH 4.0, Week 3",<10 colony forming units
same,concentration of microbes,"Pseudomonas [4]; pH 4.0, Week 4",<10 colony forming units
same,concentration of microbes,"Pseudomonas [4]; pH 5.0, Day 2",>6 log base 10
same,concentration of microbes,"Pseudomonas [4]; pH 5.0, Week 2",<10 colony forming units
same,concentration of microbes,"Pseudomonas [4]; pH 5.0, Week 3",<10 colony forming units
same,effectiveness in preventing the onset of irritation (reduction of skin redness),[5],49%
same,"antimicrobial activity against Pseudomonas, in words",Pseudomonas [6],does exhibit inhibition
same,"antimicrobial activity against Mold, in words",Mold,very poor level of activity
same,concentration of microbes,"Mold; pH 3.0, Day 0",5.2 log base 10
same,concentration of microbes,"Mold; pH 3.0, Day 2",<10 colony forming units
same,concentration of microbes,"Mold; pH 3.0, Week 1",<10 colony forming units
same,concentration of microbes,"Mold; pH 3.0, Week 2",<10 colony forming units
same,concentration of microbes,"Mold; pH 3.0, Week 3",<10 colony forming units
same,concentration of microbes,"Mold; pH 3.0, Week 4",<10 colony forming units
same,concentration of microbes,"Mold; pH 4.0, Day 0",5.2 log base 10
same,concentration of microbes,"Mold; pH 4.0, Day 2",1.6 log base 10
same,concentration of microbes,"Mold; pH 4.0, Week 1",<10 colony forming units
same,concentration of microbes,"Mold; pH 4.0, Week 2",<10 colony forming units
same,concentration of microbes,"Mold; pH 4.0, Week 3",<10 colony forming units
same,concentration of microbes,"Mold; pH 4.0, Week 4",<10 colony forming units
same,concentration of microbes,"Mold; pH 5.0, Day 0",5.2 log base 10
same,concentration of microbes,"Mold; pH 5.0, Day 2",5.2 log base 10
same,concentration of microbes,"Mold; pH 5.0, Week 1",5.2 log base 10
same,concentration of microbes,"Mold; pH 5.0, Week 2",5.2 log base 10
same,concentration of microbes,"Mold; pH 5.0, Week 3",3.0 log base 10
same,concentration of microbes,"Mold; pH 5.0, Week 4",>5 log base 10
same,"antimicrobial activity against mycobacteria, in words",mycobacteria,particularly effective
same,"antimicrobial activity against yeast, in words",Yeast [7],very poor level of activity
same,concentration of microbes,"Yeast [7]; pH 3.0, Day 0",5.7 log base 10
same,concentration of microbes,"Yeast [7]; pH 3.0, Day 2",<10 colony forming units
same,concentration of microbes,"Yeast [7]; pH 3.0, Week 1",<10 colony forming units
same,concentration of microbes,"Yeast [7]; pH 3.0, Week 3",<10 colony forming units
same,concentration of microbes,"Yeast [7]; pH 3.0, Week 4",<10 colony forming units
same,concentration of microbes,"Yeast [7]; pH 4.0, Day 0",5.7 log base 10
same,concentration of microbes,"Yeast [7]; pH 4.0, Day 2",3.7 log base 10
same,concentration of microbes,"Yeast [7]; pH 4.0, Week 2",<10 colony forming units
same,concentration of microbes,"Yeast [7]; pH 4.0, Week 3",<10 colony forming units
same,concentration of microbes,"Yeast [7]; pH 4.0, Week 4",>5.7 log base 10
same,concentration of microbes,"Yeast [7]; pH 5.0, Day 0",5.7 log base 10
same,concentration of microbes,"Yeast [7]; pH 5.0, Day 2",>5.7 log base 10
same,concentration of microbes,"Yeast [7]; pH 5.0, Week 1",>5.7 log base 10
same,concentration of microbes,"Yeast [7]; pH 5.0, Week 4",>5.7 log base 10
same,"antimicrobial activity against Enterics, in words",Enterics [8],does exhibit inhibition
same,"inhibition of adhesion of polymorphonuclear leukocytes (PMNs) to activated endothelial cells, in words",[9],ability to inhibit the adhesion
same,"inhibition of lymphocyte adhesion, in words (absorbance at 570 nm, Rose Bengal)","[9]; concentrations of 0.5% and 1%, IL-1β and PHA stimulated",very potent inhibitors of lymphocyte adhesion
